Data taken from publication PMC8245910 (Acta Pharmaceutica Sinica. B, 2021).

Columns and labels:
wild-type TF-1 = test: 2-HG reducing assay in cell; format: cell-based
[1] = SD rats; cited from earlier work
MDR1 = MDR1 (Homo sapiens, UniProt P08183); conditions: cited from earlier work
BCRP = target: T1, BCRP (Homo sapiens, UniProt Q9UNQ0); conditions: cited from earlier work
T1 sequence (Q9UNQ0 1-655): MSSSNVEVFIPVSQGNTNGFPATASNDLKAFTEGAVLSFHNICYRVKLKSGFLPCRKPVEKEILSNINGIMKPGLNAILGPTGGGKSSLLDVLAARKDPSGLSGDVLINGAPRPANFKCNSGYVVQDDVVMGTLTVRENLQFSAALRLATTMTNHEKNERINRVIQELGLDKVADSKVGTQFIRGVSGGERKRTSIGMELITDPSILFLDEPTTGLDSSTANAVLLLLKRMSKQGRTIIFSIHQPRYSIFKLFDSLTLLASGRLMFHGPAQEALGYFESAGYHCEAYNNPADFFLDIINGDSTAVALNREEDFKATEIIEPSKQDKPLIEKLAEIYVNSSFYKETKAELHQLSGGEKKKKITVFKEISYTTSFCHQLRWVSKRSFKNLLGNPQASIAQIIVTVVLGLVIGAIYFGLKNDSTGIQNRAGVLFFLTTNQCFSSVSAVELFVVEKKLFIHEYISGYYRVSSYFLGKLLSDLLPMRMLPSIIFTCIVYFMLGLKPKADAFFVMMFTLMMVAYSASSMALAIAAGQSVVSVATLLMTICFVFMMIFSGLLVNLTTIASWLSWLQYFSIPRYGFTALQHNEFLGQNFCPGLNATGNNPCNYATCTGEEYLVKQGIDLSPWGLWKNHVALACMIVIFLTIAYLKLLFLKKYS

Chain of MDR1 (P08183 whole entry): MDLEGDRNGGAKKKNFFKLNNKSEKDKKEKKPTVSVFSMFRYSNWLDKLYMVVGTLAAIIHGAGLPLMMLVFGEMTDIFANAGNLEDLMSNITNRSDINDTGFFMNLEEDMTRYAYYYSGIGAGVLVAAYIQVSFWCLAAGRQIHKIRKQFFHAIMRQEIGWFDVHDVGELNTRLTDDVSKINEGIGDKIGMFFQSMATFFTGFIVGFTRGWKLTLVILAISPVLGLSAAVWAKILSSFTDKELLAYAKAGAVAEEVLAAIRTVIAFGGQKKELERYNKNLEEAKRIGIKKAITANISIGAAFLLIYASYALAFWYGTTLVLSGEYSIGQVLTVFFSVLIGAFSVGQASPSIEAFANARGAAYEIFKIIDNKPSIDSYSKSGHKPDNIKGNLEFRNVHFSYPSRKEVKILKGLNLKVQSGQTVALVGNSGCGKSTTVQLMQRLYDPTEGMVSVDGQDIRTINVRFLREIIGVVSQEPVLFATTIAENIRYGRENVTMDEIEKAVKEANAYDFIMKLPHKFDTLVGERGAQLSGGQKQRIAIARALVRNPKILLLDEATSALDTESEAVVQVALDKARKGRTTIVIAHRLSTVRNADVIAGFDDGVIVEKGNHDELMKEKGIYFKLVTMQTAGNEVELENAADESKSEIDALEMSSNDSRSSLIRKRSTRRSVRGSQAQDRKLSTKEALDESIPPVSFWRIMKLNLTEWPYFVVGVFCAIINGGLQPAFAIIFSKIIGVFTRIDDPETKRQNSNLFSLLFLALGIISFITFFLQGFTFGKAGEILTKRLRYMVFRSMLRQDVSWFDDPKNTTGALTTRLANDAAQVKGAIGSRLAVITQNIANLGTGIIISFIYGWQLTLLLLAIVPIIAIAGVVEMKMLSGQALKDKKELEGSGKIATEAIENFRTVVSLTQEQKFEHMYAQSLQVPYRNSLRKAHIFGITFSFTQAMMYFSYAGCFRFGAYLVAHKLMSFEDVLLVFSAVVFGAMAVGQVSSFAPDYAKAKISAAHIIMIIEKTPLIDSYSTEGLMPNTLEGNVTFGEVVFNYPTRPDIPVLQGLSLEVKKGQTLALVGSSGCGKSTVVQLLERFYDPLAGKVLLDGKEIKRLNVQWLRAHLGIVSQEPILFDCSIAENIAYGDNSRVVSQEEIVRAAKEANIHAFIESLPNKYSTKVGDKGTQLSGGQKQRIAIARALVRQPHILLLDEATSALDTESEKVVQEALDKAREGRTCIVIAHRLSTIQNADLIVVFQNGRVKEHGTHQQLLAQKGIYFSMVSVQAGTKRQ

SMILES: CC(C)(O)CNc1nc(Nc2ccnc(C(F)(F)F)c2)nc(-c2cccc(C(F)(F)F)n2)n1 [AG-221, Enasidenib]
- overall concentration of 2-HG (wild-type TF-1): did not change significantly
- prototype drug in the excrement, share of the total drugs [1]: about 50%
- prototype products and metabolites excreted in feces [1]: > 90%
- inhibition of MDR1 (MDR1): strong inhibitor
- inhibition of BCRP (BCRP): strong inhibitor
